Experimental data: ChEMBL document CHEMBL5104155, “Novel etodolac derivatives as eukaryotic elongation factor 2 kinase (eEF2K) inhibitors for targeted cancer therapy” (RSC Med Chem, 2022)
The source made the active and inactive calls. No cut-off for these calls is given here.

Legend:
Format in all cases: cell-based
[1] = target: T1, Eukaryotic elongation factor 2 kinase (Homo sapiens) (UniProt O00418); test: Inhibition of eEF2K in human MDA-MB-231 cells assessed as decrease in phosphorylation of eEF2 at Thr56 residue at 20 uM incubated for 2 hrs by western blot analysis
T1 sequence (whole entry): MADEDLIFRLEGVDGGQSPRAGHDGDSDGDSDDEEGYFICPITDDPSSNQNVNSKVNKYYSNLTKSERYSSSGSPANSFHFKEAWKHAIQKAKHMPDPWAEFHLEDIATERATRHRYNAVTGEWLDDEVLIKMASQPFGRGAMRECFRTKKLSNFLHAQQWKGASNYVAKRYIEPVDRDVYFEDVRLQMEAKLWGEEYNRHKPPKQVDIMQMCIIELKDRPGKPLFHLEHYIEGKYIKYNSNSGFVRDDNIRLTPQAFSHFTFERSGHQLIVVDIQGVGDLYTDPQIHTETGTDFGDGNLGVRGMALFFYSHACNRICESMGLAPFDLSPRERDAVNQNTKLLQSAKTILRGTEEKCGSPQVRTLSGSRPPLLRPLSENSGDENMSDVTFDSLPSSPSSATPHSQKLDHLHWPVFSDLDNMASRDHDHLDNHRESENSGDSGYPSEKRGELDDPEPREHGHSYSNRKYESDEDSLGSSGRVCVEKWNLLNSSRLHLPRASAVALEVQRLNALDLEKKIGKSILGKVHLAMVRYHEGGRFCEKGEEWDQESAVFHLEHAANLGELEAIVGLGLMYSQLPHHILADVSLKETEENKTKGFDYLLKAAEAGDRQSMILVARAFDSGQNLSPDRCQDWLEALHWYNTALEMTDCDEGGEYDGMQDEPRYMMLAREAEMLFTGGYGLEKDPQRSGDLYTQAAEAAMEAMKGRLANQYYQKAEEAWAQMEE

[2] = target: T1, Eukaryotic elongation factor 2 kinase (Homo sapiens); test: Inhibition of eEF2K in human MDA-MB-231 cells assessed as decrease in phosphorylation of eEF2 at Thr56 residue at 2.5 uM incubated for 2 hrs by western blot analysis
[3] = target: T1, Eukaryotic elongation factor 2 kinase (Homo sapiens); test: Inhibition of eEF2K in human MDA-MB-231 cells assessed as decrease in phosphorylation of eEF2 at Thr56 residue at 5 uM incubated for 2 hrs by western blot analysis

inhibition [1] | inhibition [2] | inhibition [3] | SMILES
Active | – | – | CCc1cccc2c3c([nH]c12)C(CC)(CC(=O)N1CCCCC1)OCC3 (stereo not given)
– | Active | Active | CCc1cccc2c3c([nH]c12)C(CC)(CC(=O)NCCN1CCCCC1)OCC3 (stereo not given)
– | Active | Active | CCc1cccc2c3c([nH]c12)C(CC)(CC(=O)N1CCN(C)CC1)OCC3 (stereo not given)
